The test addresses T1, human CRF2α receptor (Homo sapiens, UniProt Q13324).
T1 construct: expressed in transfected cells; host or cells: TeloHEAC
T1 sequence (Q13324 1-411): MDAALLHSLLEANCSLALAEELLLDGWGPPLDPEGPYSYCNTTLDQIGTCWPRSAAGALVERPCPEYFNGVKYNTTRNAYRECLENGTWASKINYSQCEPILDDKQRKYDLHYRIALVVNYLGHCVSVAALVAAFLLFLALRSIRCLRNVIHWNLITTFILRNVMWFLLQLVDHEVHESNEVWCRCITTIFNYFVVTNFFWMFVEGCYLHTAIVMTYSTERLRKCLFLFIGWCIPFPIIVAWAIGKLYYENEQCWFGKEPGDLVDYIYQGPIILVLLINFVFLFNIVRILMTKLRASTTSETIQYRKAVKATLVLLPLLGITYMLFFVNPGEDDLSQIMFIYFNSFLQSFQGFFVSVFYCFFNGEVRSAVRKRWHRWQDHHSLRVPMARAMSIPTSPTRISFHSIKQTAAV
The test is described as follows: cAMP agonism at human CRF2 α receptor in TeloHEAC cells (Example 7). Type of test: cell-based. As to conditions: cAMP HTRF, TeloHEAC cells stably expressing human CRF2 α. The gist of the method: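 Percent activation was referenced to 1000 nM UCN2 (100%), and EC50 values taken as concentrations giving half of maximal response. The read-out was a homogeneous time-resolved fluorescence cAMP kit, fluorescence ratio 665/620 nm. Thawed cells (2000/well) saw compound for 30 min at RT in buffer with 2 mM IBMX and 0%/0.1% HSA.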
(In general: In TR-FRET formats the signal depends on donor and acceptor labels being close together.)

The mark [1] stands for this setting: 0% HSA, read-out: EC50 [nM], 0% HSA.
The mark [2] stands for this setting: 0.1% HSA, read-out: EC50 [nM], 0.1% HSA.

Read-outs that look alike come from different tables or passages of the source. Starred links: 1 amine or outer side, 2 acyl side, 3 side chain; linkers in the order of their positions; H or OH if unused. Non-standard residues stand in square brackets, D forms with d. Residues, ends and D or L forms follow the SMILES beside them. Groups on a side chain read outwards from the residue. *: point of attachment. C18 diacid = O=C(O)CCCCCCCCCCCCCCCCC(=O)*; γGlu = O=C(O)[C@H](CCC(=O)[*:2])N[*:1]; AEEA = NCCOCCOCC(=O)O; Aib = CC(C)(N)C(=O)O

As usually defined, the EC50 is the concentration giving half of the maximal effect. For the molecule `CC[C@H](C)[C@H](N)C(=O)N[C@H](C(=O)N[C@@H](CC(C)C)C(=O)N[C@@H](CO)C(=O)N[C@@H](CC(C)C)C(=O)N[C@@H](CC(=O)O)C(=O)N[C@H](C(=O)N1CCC[C@H]1C(=O)N[C@H](C(=O)N[C@@H](CCCCN)C(=O)N[C@@H](CC(C)C)C(=O)N[C@@H](CCCCNC(=O)COCCOCCNC(=O)COCCOCCNC(=O)CC[C@H](NC(=O)CCCCCCCCCCCCCCCCC(=O)O)C(=O)O)C(=O)N[C@@H](CCC(N)=O)C(=O)N[C@H](C(=O)N[C@@H](CC(C)C)C(=O)N[C@@H](CC(C)C)C(=O)N[C@@H](CCC(=O)O)C(=O)N[C@@H](CCC(N)=O)C(=O)N[C@@H](CCC(=O)O)C(=O)N[C@@H](CCCNC(=N)N)C(=O)N[C@@H](CCC(N)=O)C(=O)N[C@@H](CCCCN)C(=O)N[C@@H](CCCCN)C(=O)N[C@@H](CCC(N)=O)C(=O)N[C@@H](CCCNC(=N)N)C(=O)N[C@@H](CCC(=O)O)C(=O)N[C@@H](CCC(N)=O)C(=O)N[C@@H](C)C(=O)N[C@@H](CCC(=O)O)C(=O)N[C@H](C(=O)N[C@@H](CC(N)=O)C(=O)NC(C)(C)C(=O)N[C@@H](CCC(N)=O)C(=O)N[C@H](C(=O)N[C@@H](CC(C)C)C(=O)N[C@@H](C)C(=O)N[C@@H](CCC(N)=O)C(=O)N[C@H](C(N)=O)C(C)C)[C@@H](C)CC)[C@@H](C)O)[C@@H](C)CC)[C@@H](C)O)C(C)C)C(C)C` [compound 78] (H-IVLSLDVPTKLK([AEEA-AEEA-γGlu-C18 diacid])QILLEQERQKKQREQAETN[Aib]QILAQV-NH2), the EC50 under setting [1] came to 10.6 nM. `CC[C@H](C)[C@H](N)C(=O)N[C@H](C(=O)N[C@@H](CC(C)C)C(=O)N[C@@H](CO)C(=O)N[C@@H](CC(C)C)C(=O)N[C@@H](CC(=O)O)C(=O)N[C@H](C(=O)N1CCC[C@H]1C(=O)N[C@H](C(=O)N[C@@H](CCCCN)C(=O)N[C@@H](CC(C)C)C(=O)N[C@@H](CCCCNC(=O)COCCOCCNC(=O)COCCOCCNC(=O)CC[C@H](NC(=O)CCCCCCCCCCCCCCCCC(=O)O)C(=O)O)C(=O)N[C@@H](CCC(N)=O)C(=O)N[C@H](C(=O)N[C@@H](CC(C)C)C(=O)N[C@@H](CC(C)C)C(=O)N[C@@H](CCCCN)C(=O)N[C@@H](CCC(N)=O)C(=O)N[C@@H](CCC(=O)O)C(=O)N[C@@H](CCCNC(=N)N)C(=O)N[C@@H](CCC(N)=O)C(=O)N[C@@H](CCCCN)C(=O)N[C@@H](CCCCN)C(=O)NC(C)(C)C(=O)N[C@@H](CCCNC(=N)N)C(=O)N[C@@H](CCC(=O)O)C(=O)N[C@@H](CCC(N)=O)C(=O)N[C@@H](C)C(=O)N[C@@H](CCC(=O)O)C(=O)N[C@H](C(=O)N[C@@H](CC(N)=O)C(=O)N[C@H](C(=O)N[C@@H](CCCNC(=N)N)C(=O)N[C@H](C(=O)N[C@@H](CC(C)C)C(=O)N[C@@H](CCC(=O)O)C(=O)N[C@@H](CCCNC(=N)N)C(=O)N[C@H](C(N)=O)C(C)C)[C@@H](C)CC)C(C)C)[C@@H](C)O)[C@@H](C)CC)[C@@H](C)O)C(C)C)C(C)C` [compound 82] (H-IVLSLDVPTKLK([AEEA-AEEA-γGlu-C18 diacid])QILLKQERQKK[Aib]REQAETNVRILERV-NH2): the half-maximal effective concentration (EC50) under setting [1] was determined as 10.1 nM.

For the molecule `CC[C@H](C)[C@H](N)C(=O)N[C@H](C(=O)N[C@@H](CC(C)C)C(=O)N[C@@H](CO)C(=O)N[C@@H](CC(C)C)C(=O)N[C@@H](CC(=O)O)C(=O)N[C@H](C(=O)N1CCC[C@H]1C(=O)N[C@H](C(=O)N[C@@H](CCCCN)C(=O)N[C@@H](CC(C)C)C(=O)N[C@@H](CCCCNC(=O)COCCOCCNC(=O)COCCOCCNC(=O)CC[C@H](NC(=O)CCCCCCCCCCCCCCCCC(=O)O)C(=O)O)C(=O)N[C@@H](CCC(N)=O)C(=O)N[C@@H](CCCCN)C(=O)N[C@@H](CC(C)C)C(=O)N[C@@H](CC(C)C)C(=O)N[C@@H](CCC(=O)O)C(=O)N[C@@H](CCC(N)=O)C(=O)N[C@@H](CCC(=O)O)C(=O)N[C@@H](CCCCN)C(=O)N[C@@H](CCC(N)=O)C(=O)N[C@@H](CCCCN)C(=O)N[C@@H](CCCCN)C(=O)N[C@@H](CCC(N)=O)C(=O)N[C@@H](CCCNC(=N)N)C(=O)N[C@@H](CCC(=O)O)C(=O)N[C@@H](CCC(N)=O)C(=O)N[C@@H](C)C(=O)N[C@@H](CCC(=O)O)C(=O)N[C@H](C(=O)N[C@@H](CC(N)=O)C(=O)N[C@@H](CCCCN)C(=O)N[C@@H](CCC(N)=O)C(=O)N[C@H](C(=O)N[C@@H](CC(C)C)C(=O)N[C@@H](C)C(=O)N[C@@H](CCC(N)=O)C(=O)N[C@H](C(N)=O)C(C)C)[C@@H](C)CC)[C@@H](C)O)[C@@H](C)CC)C(C)C)C(C)C` [compound 84] (H-IVLSLDVPIKLK([AEEA-AEEA-γGlu-C18 diacid])QKLLEQEKQKKQREQAETNKQILAQV-NH2; N-terminus assumed), the EC50 under setting [1] worked out at 1.85 nM and the EC50 under setting [2] turned out to be 61.7 nM.

For the molecule `CC[C@H](C)[C@H](N)C(=O)N[C@H](C(=O)N[C@@H](CC(C)C)C(=O)N[C@@H](CO)C(=O)N[C@@H](CC(C)C)C(=O)N[C@@H](CC(=O)O)C(=O)N[C@H](C(=O)N1CCC[C@H]1C(=O)N[C@H](C(=O)N[C@@H](CCCCN)C(=O)N[C@@H](CC(C)C)C(=O)N[C@@H](CCCCNC(=O)COCCOCCNC(=O)COCCOCCNC(=O)CC[C@H](NC(=O)CCCCCCCCCCCCCCCCC(=O)O)C(=O)O)C(=O)N[C@@H](CCC(N)=O)C(=O)N[C@H](C(=O)N[C@@H](CC(C)C)C(=O)N[C@@H](CC(C)C)C(=O)N[C@@H](CCCCN)C(=O)N[C@@H](CCC(N)=O)C(=O)N[C@@H](CCC(=O)O)C(=O)N[C@@H](CCCNC(=N)N)C(=O)N[C@@H](CCC(N)=O)C(=O)N[C@@H](CCCCN)C(=O)N[C@@H](CCCCN)C(=O)N[C@@H](CCC(N)=O)C(=O)N[C@@H](CCCNC(=N)N)C(=O)N[C@@H](CCC(=O)O)C(=O)N[C@@H](CCCCN)C(=O)N[C@@H](C)C(=O)N[C@@H](CCCCN)C(=O)N[C@H](C(=O)N[C@@H](CC(N)=O)C(=O)N[C@H](C(=O)N[C@@H](CCC(N)=O)C(=O)N[C@H](C(=O)N[C@@H](CC(C)C)C(=O)N[C@@H](C)C(=O)N[C@@H](CCC(N)=O)C(=O)N[C@H](C(N)=O)C(C)C)[C@@H](C)CC)C(C)C)[C@@H](C)O)[C@@H](C)CC)[C@@H](C)CC)C(C)C)C(C)C` [compound 90] (H-IVLSLDVPIKLK([AEEA-AEEA-γGlu-C18 diacid])QILLKQERQKKQREKAKTNVQILAQV-NH2; N-terminus assumed), the EC50 reads like this: under setting [1], 3.91 nM; under setting [2], 92.6 nM.

Turning to `CC[C@H](C)[C@H](N)C(=O)N[C@H](C(=O)N[C@@H](CC(C)C)C(=O)N[C@@H](CO)C(=O)N[C@@H](CC(C)C)C(=O)N[C@@H](CC(=O)O)C(=O)N[C@H](C(=O)N1CCC[C@H]1C(=O)N[C@H](C(=O)N[C@@H](CCCCN)C(=O)N[C@@H](CC(C)C)C(=O)N[C@@H](CCCCNC(=O)COCCOCCNC(=O)COCCOCCNC(=O)CC[C@H](NC(=O)CCCCCCCCCCCCCCCCC(=O)O)C(=O)O)C(=O)N[C@@H](CCC(N)=O)C(=O)N[C@@H](CCCCN)C(=O)N[C@@H](CC(C)C)C(=O)N[C@@H](CC(C)C)C(=O)N[C@@H](CCCCN)C(=O)N[C@@H](CCC(N)=O)C(=O)N[C@@H](CCC(=O)O)C(=O)N[C@@H](CCCNC(=N)N)C(=O)N[C@@H](CCC(N)=O)C(=O)N[C@@H](CCCCN)C(=O)N[C@@H](CCCCN)C(=O)N[C@@H](CCC(N)=O)C(=O)N[C@@H](CCCNC(=N)N)C(=O)N[C@@H](CCC(=O)O)C(=O)N[C@@H](CCCCN)C(=O)N[C@@H](C)C(=O)N[C@@H](CCCCN)C(=O)N[C@H](C(=O)N[C@@H](CC(N)=O)C(=O)NC(C)(C)C(=O)N[C@@H](CCC(N)=O)C(=O)N[C@H](C(=O)N[C@@H](CC(C)C)C(=O)N[C@@H](C)C(=O)N[C@@H](CCC(N)=O)C(=O)N[C@H](C(N)=O)C(C)C)[C@@H](C)CC)[C@@H](C)O)[C@@H](C)CC)C(C)C)C(C)C` [compound 91] (H-IVLSLDVPIKLK([AEEA-AEEA-γGlu-C18 diacid])QKLLKQERQKKQREKAKTN[Aib]QILAQV-NH2), under setting [1], the EC50 is 14.3 nM.

These data come from US12679878B2, “CRF2 receptor agonists and their use in therapy” (SANOFI, priority 2020, dated 2026).
